Test results taken from paper PMC5712521, “Dendrogenin A drives LXR to trigger lethal autophagy in cancers” (Nature Communications, 2017).

Tests used:
SKMEL-28 cells = assay: Clonogenicity (colony formation) inhibition; format: cell-based; conditions: Homo sapiens, SK-MEL-28; SKMEL-28 (H); 72 h; read-out: Clono IC50
Description: (§1) Supplementary Fig. 1. a DDA inhibited m elanom a colony form ation. Melanom a cells were […]
(§2) a 0.5% solution of crystal violet in water and analyzed by microscopy. Images are representative of 5 independent experiments. b Evaluation of DDA-induced cytotoxicity (cytotox) and clonogenicity (clono) inhibition in a subset of human (H) and mouse (M) m elanom a cell lines. T he BRaf status in m elanom a cells lines is shown. […]

B16F10 cells = assay: Clonogenicity (colony formation) inhibition; format: cell-based; conditions: Mus musculus, B16-F10; B16F10 (M); 72 h; read-out: Clono IC50
Description: as §1, §2

B16F10 tumors = assay: B16F10 melanoma tumors in mice; format: in vivo; conditions: mouse B16F10; i.p. 20 mg/kg/day
Method: Exponentially growing cells were harvested, washed twice in PBS then resuspended in PBS. SKMEL-28, shSKMEL-28 clones (5 × 10^6 cells) and B16F10 (3 × 10^5) cells were injected subcutaneously (s.c.) into the flank of nude mice. HL60, KG1 and shKG1-clones (5 × 10^6) were inoculated s.c. into the flanks of NOD/SCID mice. When tumors were palpable, animals (n = 10–20 mice per group, as indicated) were randomized to receive either DDA (20 mg/kg) intraperitoneally (i.p.) or 40 mg/kg by oral gavage (p.o), once a day, or vehicle solvent for the indicated time. Animals were examined daily and body weights were measured twice a week. In all experiments, tumor volume was determined by direct measurement with a caliper and was calculated using the formula (width^2 × length)/2. At the end of experiments, mice were sacrificed and tumors were excised and divided for intra-tumoral DDA quantification, immunoblotting, or immunohistochemistry analyses.

AML cells = assay: Immunoblot of caspase-3 and PARP in AML cells; format: cell-based, human; conditions: 24 h
Method: Immunoblotting was carried out as described previously. Proteins were separated on SDS-PAGE gels, electro-transferred onto polyvinylidene difluoride membranes and incubated overnight at 4 °C with the following antibodies: anti-Atg3, anti-Atg5 (D1G9), anti-Atg7 (D12B11), anti-Beclin (D40C5), anti-caspase-3 (Cell Signaling), anti-Bcl-2 (Millipore), anti-Bax (Millipore), anti-LC3 (Sigma-Aldrich), anti-LXRα (SantaCruz), anti-LXRβ (SantaCruz), anti-Nur77 (Active motif), anti-NOR1 (R&D systems), anti-PARP (Cell Signaling), anti-Vps34 (Cell Signaling), or anti-Actin (Millipore). For visualization, an ECL plus kit (Amersham Biosciences) was used, and chemiluminescence was measured by autoradiography (Supplementary Fig. 9). Specific bands were quantified with ImageQuant software.
Supplementary Fig. 6. […]
AML cells treated with DDA for 24 h in the absence or presence of 50 µM z- VAD-fmk (a
caspase inhibitor). j Effect of z-VAD-fmk on DDA-induced c ytotox icit y in KG1 and HL60 cells. […]
Images are
representative of 3 independent experim ents.

WM-266-4 cells = assay: DDA-induced cytotoxicity; format: cell-based; conditions: Homo sapiens; WM-266-4 (H), BRaf WT; 72 h; read-out: Cytotox EC50
Method: (§3) Melanoma cells were seeded into 6-well plates at 60,000 cells per well and AML cells at 250,000 cells/ml. The cells were then treated with control solvent vehicle (1/1000 ethanol in water) or DDA. Where indicated, treated cells were incubated in the presence or absence of each inhibitor for time shown. Cell death was determined by the trypan blue exclusion assay. Cells were scraped and resuspended in trypan blue solution (0.25% (w/v) in PBS) and counted in a Malassez cell under light microscopy. Cell viability was then quantified by counting viable (trypan blue-negative) and dead cells (trypan blue-positive). […]
(§4) (cytotox) and clonogenicity (clono) inhibition in a subset of human (H) and mouse (M)
(§5) m elanom a cell lines. T he BRaf status in m elanom a cells lines is shown. […]

WM115 cells = assay: DDA-induced cytotoxicity; format: cell-based; conditions: Homo sapiens, WM-115; WM115 (H), BRaf V600E; 72 h; read-out: Cytotox EC50
Method: as §3, §4, §5

WM35 cells = assay: DDA-induced cytotoxicity; format: cell-based; conditions: Homo sapiens; WM35 (H), BRaf V600E; 72 h; read-out: Cytotox EC50
Method: as §3, §4, §5

A375 cells = assay: DDA-induced cytotoxicity; format: cell-based; conditions: Homo sapiens, A-375; A375 (H), BRaf V600E; 72 h; read-out: Cytotox EC50
Method: as §3, §4, §5

SKMEL-2 cells = assay: DDA-induced cytotoxicity; format: cell-based; conditions: Homo sapiens, SK-MEL-2; SKMEL-2 (H), BRaf WT; 72 h; read-out: Cytotox EC50
Method: as §3, §4, §5

Question: CC(C)CCC[C@@H](C)[C@H]1CC[C@H]2[C@@H]3C[C@@H](NCCc4cnc[nH]4)[C@@]4(O)C[C@@H](O)CC[C@]4(C)[C@H]3CC[C@]12C [DDA, Dendrogenin A] was tested. Which IC50 (SKMEL-28 cells) did it give?
Answer: 1400 ± 600 nM

Question: What about the IC50 (B16F10 cells) of the same compound?
Answer: 1.2e-06 ± 3e-07 M

Question: What about the tumor growth (B16F10 tumors) of the same compound?
Answer: significantly reduced the growth

Question: And the “cleaved PARP, densitometry” value (AML cells; 5 µM DDA + 50 µM z-VAD-fmk)?
Answer: 1.9

Question: And the “cleaved casp 3, densitometry” value (AML cells; 5 µM DDA + 50 µM z-VAD-fmk)?
Answer: 0.5

Question: And the “cleaved PARP, densitometry” value (AML cells; 5 µM DDA, without z-VAD-fmk)?
Answer: 6.1

Question: What about the “cleaved casp 3, densitometry” value (AML cells; 5 µM DDA, without z-VAD-fmk) of the same compound?
Answer: 4.3

Question: And the “cleaved PARP, densitometry” value (AML cells; 10 µM DDA + 50 µM z-VAD-fmk)?
Answer: 6.1

Question: And the “cleaved casp 3, densitometry” value (AML cells; 10 µM DDA + 50 µM z-VAD-fmk)?
Answer: 0.8

Question: And the “cleaved PARP, densitometry” value (AML cells; 10 µM DDA, without z-VAD-fmk)?
Answer: 10.8

Question: And the “cleaved casp 3, densitometry” value (AML cells; 10 µM DDA, without z-VAD-fmk)?
Answer: 5.2

Question: What about the EC50 (WM-266-4 cells) of the same compound?
Answer: 2700 ± 400 nM

Question: And the EC50 (WM115 cells)?
Answer: 2200 ± 200 nM

Question: What about the EC50 (WM35 cells) of the same compound?
Answer: 1600 ± 100 nM

Question: And the EC50 (A375 cells)?
Answer: 1800 ± 200 nM

Question: And the EC50 (SKMEL-2 cells)?
Answer: 2300 ± 100 nM
